Test results published in patent US7964624B1, “Inhibitors of serine proteases” (priority 2005, dated 2011).
Like-named read-outs stand apart in the source and are kept apart here. Where a SMILES comes first, the peptide text is derived from it. [ ]: non-standard residue; d: D form. Abu = CC[C@H](N)C(=O)O

Tests used:
[1] = target: T1, HCV NS3 protease domain (Hepatitis C virus genotype 1b, UniProt Q9WMX2); assay: biochemical; details: apparent Ki class
T1 construct: The first 181 amino acids of NS3 (residues 1027-1207 of the viral polyprotein); hexa-histidine (C); made in house; host or cells: E. coli BL21/DE3 pLysS

[2] = target: T2, full-length hepatitis C viral protein NS3•4A (Hepatitis C virus genotype 1a, UniProt P27958); assay: biochemical; set-up: species or system HCV sub-type strain 1a; details: apparent Ki class
T2 construct: hexa-histidine (N); made in house; host or cells: Sf9 insect cells (baculovirus, pVL1392)

[3] = target: T1, HCV NS3 protease domain; assay: Determination of Km and Vmax for peptide substrates; type: biochemical; details: enzyme NS3 protease domain; peptide substrate varied 3-200 μM; Michaelis-Menten fit
Description: This assay is a modification of that described by Landro, et al. (Landro J A, Raybuck S A, Luong Y C, O'Malley E T, Harbeson S L, Morgenstern K A, Rao G and Livingston D L. Biochemistry 1997, 36, 9340-9348), and uses a peptide substrate (NS5AB), based on the NS5A/NS5B cleavage site for genotype 1a HCV. The substrate stock solution (25 mM) was prepared in DMSO containing 0.2 M DTT and stored at −20° C. A synthetic peptide cofactor (KK4A) was used as a substitute for the central core region of NS4A. The reaction was performed in a 96-well microtiter plate format using 25 ηM to 50 ηM HCV NS3 protease domain in buffer containing 50 mM HEPES pH 7.8, 100 mM NaCl, 20% glycerol, 5 mM DTT and 25 μM KK4A. The final DMSO concentration was no greater than 2% v/v. […]
The SMSY product was separated from substrate and KK4A using a microbore separation method. […] The SMSY product peak was quantitated using the data collected at […].
To determine the kinetic parameters Km and Vmax, the HCV NS3 protease domain or HCV NS3•4A was reacted with peptide substrate under the assay conditions described above. […] The ratio of the product peak area (as determined by reverse phase HPLC) to the reaction time yielded a rate of enzyme catalyzed hydrolysis. […] The value of kcat was determined from Vmax using the nominal protease concentration and a fully cleaved substrate peptide as an instrument calibration standard.

[4] = target: T3, HCV NS3•4A (Hepatitis C virus genotype 1a, UniProt P27958); assay: as above; type: biochemical, HCV sub-type strain 1a; details: enzyme NS3•4A; peptide substrate varied 3-200 μM; Michaelis-Menten fit
T3 construct: hexa-histidine (N); made in house; host or cells: Sf9 insect cells (baculovirus, pVL1392)
Description: (§1) This assay follows the cleavage of a peptide substrate by full-length hepatitis C viral protein NS3•4A. One of three peptide substrates based on the NS5A/NS5B cleavage site for genotype 1a HCV is used to measure enzyme activity. All substrate stock solutions (25 mM) were prepared in DMSO containing 0.2M DTT and stored at −20° C. A synthetic peptide cofactor (NS4A Peptide) was used to supplement NS4A. Peptide sequences are shown below. The hydrolysis reaction was performed in a 96-well microtiter plate format using 100 ηM to 125 ηM HCV NS3•4A in buffer containing 50 mM HEPES pH 7.8, 100 mM NaCl, 20% glycerol, 5 mM DTT and 25 μM NS4A Peptide. The final DMSO concentration was no greater than 2% v/v. Reactions using NS5AB or NS5AB-EDANS as substrate were quenched by the addition of 10% trifluoroacetic acid (TFA) to yield a final TFA concentration of 2.5%. Reactions using FITC-NS5AB-1 as substrate were quenched by the addition of 0.4M formic acid to yield a final concentration of 0.08M acid.
(§2) Enzymatic activity was assessed by separation of substrate and products by reverse phase HPLC. The instrument used was a Agilent 1100 with a G1322A degasser, either a G1312A binary pump or a G1311A quaternary pump, a G1313A autosampler, a G1316A column thermostated chamber, a G1321A fluorescence detector and a G1315A diode array detector. The column thermostat was at 40° C. […] The C-terminal product peak (NH2-SMSY-COOH) was quantitated using the absorbance data collected at 210 ηm. […] The C-terminal product peak (NH2-SMSYT-Asp(EDANS)-KKK-COOH) was quantitated using the fluorescence data collected at 350 ηm excitation/490 ηm emission. […] The N-terminal product peak (FITC-Ahx-EDVV-(alpha)Abu-C—COOH) was quantitated using the fluorescence data collected at 440 nm excitation/520 nm emission. Alternatively, the ratio of N-terminal product to unreacted FITC-NS5AB-1 substrate was determined using a Caliper LabChip 3000 with detection at 488 nm excitation/530 nm emission, using a chip buffer of 100 mM Tris pH 7.0, 10 mM EDTA, 0.01% (v/v) Brij-35, and 0.1% (v/v) CR-3. […]

[5] = tested on: CC[C@H](NC(=O)[C@@H](NC(=O)[C@@H](NC(=O)[C@H](CC(=O)O)NC(=O)[C@@H](N)CCC(=O)O)C(C)C)C(C)C)C(=O)N[C@@H](CS)C(=O)N[C@@H](CO)C(=O)N[C@@H](CCSC)C(=O)N[C@@H](CO)C(=O)N[C@@H](Cc1ccc(O)cc1)C(=O)N[C@H](C(=O)N[C@@H](CC(=O)NCCNc1cccc2c(S(=O)(=O)O)cccc12)C(=O)N[C@@H](CCCCN)C(=O)N[C@@H](CCCCN)C(=O)N[C@@H](CCCCN)C(=O)O)[C@@H](C)O; assay: as above; type: biochemical, HCV sub-type strain 1a; details: other: enzyme NS3•4A; peptide substrate varied 3-200 μM; Michaelis-Menten fit; 40.0 °C
Description: as §1, §2

[6] = Enzyme Assay 1 (HCV NS3 Protease Domain Peptide Cleavage Assay) activity
[7] = Enzyme Assay 2 (HCV NS3 Peptide Cleavage Assay) activity

In the case of CCC[C@H](NC(=O)[C@@H]1C[C@]2(CC(c3cccc(Cl)c3)=NO2)CN1C(=O)C(C)N1Cc2ccccc2C1=O)C(=O)C(=O)NC1CC1 (some centres unmarked) [Compound 574], the Ki [1, 6] is reported as > 500 nM and the Ki [2, 7] is reported as > 500 nM.

For CCC[C@H](NC(=O)[C@@H]1C[C@]2(CC(c3cccc(Cl)c3)=NO2)CN1C(=O)[C@@H](NC(=O)CC1CCC(C)(O)CC1)C(C)(C)C)C(=O)C(=O)NC1CC1 (some centres unmarked) [Compound 575], the Ki ([1]; read-out: Enzyme Assay 1 (HCV NS3 Protease Domain Peptide Cleavage Assay) activity) was < 100 nM and the Ki ([2]; read-out: Enzyme Assay 2 (HCV NS3 Peptide Cleavage Assay) activity) was < 100 nM.

For CCC[C@H](NC(=O)[C@@H]1C[C@]2(CC(c3cccc(Cl)c3)=NO2)CN1C(=O)C1=CC(c2cc(OC)ccc2OC)NC(=O)N1)C(=O)C(=O)NC1CC1 (some centres unmarked) [Compound 586], the Ki [1, 6] was > 500 nM and the Ki [2, 7] was > 500 nM.

CCC[C@H](NC(=O)[C@@H]1C[C@]2(CC(c3cccc(Cl)c3)=NO2)CN1C(=O)[C@H](CC(C)C)NS(=O)(=O)c1ccc(OC)cc1)C(=O)C(=O)NC1CC1 [Compound 587] was tested, and the Ki [1, 6] was > 500 nM and the Ki [2, 7] was 100 to 500 nM.

With CCC[C@H](NC(=O)[C@@H]1C[C@]2(CC(c3cccc(Cl)c3)=NO2)CN1C(=O)[C@@H](NC(=O)CC1CCCCC1)C(C)(C)C)C(=O)C(=O)Nc1cccc(C#N)c1 [Compound 588] the Ki [1, 6] was > 500 nM and the Ki [2, 7] was > 500 nM.

In the case of CC[C@H](NC(=O)[C@@H](NC(=O)[C@@H](NC(=O)[C@H](CC(=O)O)NC(=O)[C@@H](N)CCC(=O)O)C(C)C)C(C)C)C(=O)N[C@@H](CS)C(=O)N[C@@H](CO)C(=O)N[C@@H](CCSC)C(=O)N[C@@H](CO)C(=O)N[C@@H](Cc1ccc(O)cc1)C(=O)O [DomainNS5AB] (H-EDVV[Abu]CSMSY-OH), the Km [3] is reported as 25 µM.

With CC[C@H](NC(=O)[C@@H](NC(=O)[C@@H](NC(=O)[C@H](CC(=O)O)NC(=O)[C@@H](N)CCC(=O)O)C(C)C)C(C)C)C(=O)N[C@@H](CS)C(=O)N[C@@H](CO)C(=O)N[C@@H](CCSC)C(=O)N[C@@H](CO)C(=O)N[C@@H](Cc1ccc(O)cc1)C(=O)O [NS5AB, NH2-EDVV-(alpha)Abu-CSMSY-COOH] (H-EDVV[Abu]CSMSY-OH) the Km [4] was 30 µM.

In the case of “HCV NS3•4A (Hepatitis C virus (isolate H77))”, the Km [5] is reported as 56 µM and the kcat/Km [5] is reported as 1400 M⁻¹ s⁻¹.
